The results in this text go back to PMC5218480 (PLoS ONE, 2017).

This assay deals with MV-4-11 cells. In words: Gene expression microarray analysis (Affymetrix PrimeView) and GSEA. In kind it is cell-based, human. Also on record: RFU PODN (11730768_x_at) / Fold change /veh PODN (11730768_x_at) / RFU LINC00158 (11744669_a_at) / Fold change /veh LINC00158 (11744669_a_at) / RFU DUSP10 (11751237_a_at) / Fold change /veh DUSP10 (11751237_a_at) / RFU ID3 (11757404_x_at) / Fold change /veh ID3 (11757404_x_at) / RFU PLEKHG5 (11737974_s_at) / Fold change /veh PLEKHG5 (11737974_s_at) / RFU LRRC4B (11730491_at) / Fold change /veh LRRC4B (11730491_at) / RFU GIMAP4 (11747438_a_at) / Fold change /veh GIMAP4 (11747438_a_at) / RFU KRT8 (11758183_x_at) / Fold change /veh KRT8 (11758183_x_at) / RFU CNN1 (11734310_a_at) / Fold change /veh CNN1 (11734310_a_at) / RFU VPS37D (11726825_at) / Fold change /veh VPS37D (11726825_at) / RFU C10orf10 (11716522_x_at) / Fold change /veh C10orf10 (11716522_x_at) / RFU KIR2DL2 /// KIR2DL4 /// KIR2DL5A /// KIR2DL5B /// KIR2DS1 /// KIR2DS2 /// KIR2DS3 /// KIR2DS4 /// KIR3DL3 /// KIR3DL3 /// KIR3DS1 (11738374_at) / Fold change /veh KIR2DL2 /// KIR2DL4 /// KIR2DL5A /// KIR2DL5B /// KIR2DS1 /// KIR2DS2 /// KIR2DS3 /// KIR2DS4 /// KIR3DL3 /// KIR3DL3 /// KIR3DS1 (11738374_at) / RFU C1QL1 (11718748_at) / Fold change /veh C1QL1 (11718748_at) / RFU TMPRSS4 (11747572_a_at) / Fold change /veh TMPRSS4 (11747572_a_at) / RFU HAMP (11756126_x_at) / Fold change /veh HAMP (11756126_x_at) / RFU RNFT2 (11725882_a_at) / Fold change /veh RNFT2 (11725882_a_at) / RFU NR4A2 (11747474_a_at) / Fold change /veh NR4A2 (11747474_a_at) / RFU ABCC12 (11746883_a_at) / Fold change /veh ABCC12 (11746883_a_at) / RFU TMEM136 (11760407_x_at) / Fold change /veh TMEM136 (11760407_x_at) / RFU CLDN22 /// WWC2 (11732394_at) / Fold change /veh CLDN22 /// WWC2 (11732394_at) / RFU HLA-DPB1 (11760878_x_at) / Fold change /veh HLA-DPB1 (11760878_x_at) / RFU SPINT1 (11716480_a_at) / Fold change /veh SPINT1 (11716480_a_at) / RFU GAP43 (11754022_s_at) / Fold change /veh GAP43 (11754022_s_at) / RFU A4GNT (11735810_at) / Fold change /veh A4GNT (11735810_at) / RFU PRB3 (11715151_x_at) / Fold change /veh PRB3 (11715151_x_at) / RFU TUBB4B (11761932_at) / Fold change /veh TUBB4B (11761932_at) / RFU CAPN14 (11732068_a_at) / Fold change /veh CAPN14 (11732068_a_at) / RFU TMCC2 (11721928_a_at) / Fold change /veh TMCC2 (11721928_a_at) / RFU IRGQ (11745062_a_at) / Fold change /veh IRGQ (11745062_a_at) / RFU FAM174B (11720279_a_at) / Fold change /veh FAM174B (11720279_a_at) / RFU TMPRSS4 (11748680_a_at) / Fold change /veh TMPRSS4 (11748680_a_at) / RFU FAM212B (11763350_a_at) / Fold change /veh FAM212B (11763350_a_at) / RFU PLEKHG5 (11743358_a_at) / Fold change /veh PLEKHG5 (11743358_a_at) / RFU ZSCAN30 (11745921_a_at) / Fold change /veh ZSCAN30 (11745921_a_at) / RFU CMKLR1 (11741424_a_at) / Fold change /veh CMKLR1 (11741424_a_at) / RFU LOC101060620 /// MAPK8IP1 (11723275_at) / Fold change /veh LOC101060620 /// MAPK8IP1 (11723275_at) / RFU SPTSSB (11747773_x_at) / Fold change /veh SPTSSB (11747773_x_at) / RFU PRSS12 (11739890_at) / Fold change /veh PRSS12 (11739890_at) / RFU BIN1 (11741810_x_at) / Fold change /veh BIN1 (11741810_x_at) / RFU WNT11 (11732464_a_at) / Fold change /veh WNT11 (11732464_a_at) / RFU C10orf10 (11716521_a_at) / Fold change /veh C10orf10 (11716521_a_at) / RFU C5orf56 (11738089_at) / Fold change /veh C5orf56 (11738089_at) / RFU CYB561 (11721691_x_at) / Fold change /veh CYB561 (11721691_x_at) / RFU ANKRD19P (11752326_a_at) / Fold change /veh ANKRD19P (11752326_a_at) / RFU OR2T12 /// OR2T33 /// OR2T8 (11738714_s_at) / Fold change /veh OR2T12 /// OR2T33 /// OR2T8 (11738714_s_at) / RFU VCAN (11748164_a_at) / Fold change /veh VCAN (11748164_a_at) / RFU JSRP1 (11732532_at) / Fold change /veh JSRP1 (11732532_at) / RFU KRTAP10-11 (11738290_x_at) / Fold change /veh KRTAP10-11 (11738290_x_at) / RFU MYO3A (11730013_a_at) / Fold change /veh MYO3A (11730013_a_at) / RFU EBF3 (11725865_a_at) / Fold change /veh EBF3 (11725865_a_at) / RFU CAMK2N1 (11719241_x_at) / Fold change /veh CAMK2N1 (11719241_x_at) / RFU C5orf56 (11738088_a_at) / Fold change /veh C5orf56 (11738088_a_at) / RFU OLFML3 (11715873_a_at) / Fold change /veh OLFML3 (11715873_a_at) / RFU LOC100653217 /// NTM (11731650_a_at) / Fold change /veh LOC100653217 /// NTM (11731650_a_at) / RFU MAPK11 (11762145_a_at) / Fold change /veh MAPK11 (11762145_a_at) / RFU FIZ1 (11724087_x_at) / Fold change /veh FIZ1 (11724087_x_at) / RFU OASL (11726364_x_at) / Fold change /veh OASL (11726364_x_at) / RFU SOX15 (11748057_x_at) / Fold change /veh SOX15 (11748057_x_at) / RFU CD79A (11719716_a_at) / Fold change /veh CD79A (11719716_a_at) / RFU HIST1H1D (11736915_at) / Fold change /veh HIST1H1D (11736915_at) / RFU CASKIN2 (11723855_a_at) / Fold change /veh CASKIN2 (11723855_a_at) / RFU LOC730098 (11760151_x_at) / Fold change /veh LOC730098 (11760151_x_at) / RFU OR4N2 (11742367_at) / Fold change /veh OR4N2 (11742367_at) / RFU PRRT2 (11749266_a_at) / Fold change /veh PRRT2 (11749266_a_at) / RFU SNX32 (11753110_a_at) / Fold change /veh SNX32 (11753110_a_at) / RFU CDHR5 (11726645_a_at) / Fold change /veh CDHR5 (11726645_a_at) / RFU RCAN1 (11760418_a_at) / Fold change /veh RCAN1 (11760418_a_at) / RFU FAM167A (11723789_a_at) / Fold change /veh FAM167A (11723789_a_at) / RFU FAM26E (11764081_at) / Fold change /veh FAM26E (11764081_at) / RFU ISYNA1 (11749810_s_at) / Fold change /veh ISYNA1 (11749810_s_at) / RFU ACY1 (11761880_at) / Fold change /veh ACY1 (11761880_at) / RFU 11764098_at / Fold change /veh 11764098_at / RFU SAMD14 (11745864_x_at) / Fold change /veh SAMD14 (11745864_x_at) / RFU NPB (11741838_a_at) / Fold change /veh NPB (11741838_a_at) / RFU TMPRSS6 (11731388_a_at) / Fold change /veh TMPRSS6 (11731388_a_at) / RFU KRTAP10-2 (11738614_at) / Fold change /veh KRTAP10-2 (11738614_at) / RFU ARHGAP8 /// PRR5-ARHGAP8 (11727945_x_at) / Fold change /veh ARHGAP8 /// PRR5-ARHGAP8 (11727945_x_at) / RFU KRTAP5-7 /// NADSYN1 (11734609_at) / Fold change /veh KRTAP5-7 /// NADSYN1 (11734609_at) / RFU RASL12 (11751679_a_at) / Fold change /veh RASL12 (11751679_a_at) / RFU CDKN2B (11736163_a_at) / Fold change /veh CDKN2B (11736163_a_at) / RFU PRF1 (11729649_at) / Fold change /veh PRF1 (11729649_at) / RFU, ZNF638 /// ZNF638-IT1 / Fold change vs veh, ZNF638 /// ZNF638-IT1 / RFU, PANK3 / Fold change vs veh, PANK3 / RFU, SH3YL1 / Fold change vs veh, SH3YL1 / RFU, ZEB2 / Fold change vs veh, ZEB2 / RFU, NRIP1 / Fold change vs veh, NRIP1 / RFU, PTTG1IP / Fold change vs veh, PTTG1IP / RFU, CAPN2 / Fold change vs veh, CAPN2 / RFU, MED14 / Fold change vs veh, MED14 / RFU, SNORA58 / Fold change vs veh, SNORA58 / RFU, C1orf63 / Fold change vs veh, C1orf63 / RFU, LRRFIP1 / Fold change vs veh, LRRFIP1 / RFU, NDUFAF7 / Fold change vs veh, NDUFAF7 / RFU, SLC12A2 / Fold change vs veh, SLC12A2 / RFU, IBTK / Fold change vs veh, IBTK / RFU, ESF1 / Fold change vs veh, ESF1 / Fold change vs veh, TMEM50B / RFU, TAOK1 / Fold change vs veh, TAOK1 / RFU, ACBD3 / Fold change vs veh, ACBD3 / RFU, TMA16 / Fold change vs veh, TMA16 / RFU, RWDD3 / Fold change vs veh, RWDD3 / RFU, BCAT1 / Fold change vs veh, BCAT1 / RFU, EDEM3 / Fold change vs veh, EDEM3 / RFU, TMEM33 / Fold change vs veh, TMEM33 / RFU, WDR75 / Fold change vs veh, WDR75 / RFU, AHCTF1 / Fold change vs veh, AHCTF1 / RFU, TFRC / Fold change vs veh, TFRC / RFU, ZDHHC17 / Fold change vs veh, ZDHHC17 / RFU, NOM1 / Fold change vs veh, NOM1 / RFU, ARL8B / Fold change vs veh, ARL8B / RFU, ZBTB11 / Fold change vs veh, ZBTB11 / RFU, TAMM41 / Fold change vs veh, TAMM41 / RFU, KIAA1704 /// LOC100996395 / Fold change vs veh, KIAA1704 /// LOC100996395 / RFU, ING1 / Fold change vs veh, ING1 / RFU, TRMT61B / Fold change vs veh, TRMT61B / RFU, FUBP3 / Fold change vs veh, FUBP3 / RFU, TP53 / Fold change vs veh, TP53 / RFU, TNKS2 / Fold change vs veh, TNKS2 / RFU, ZFP14 / Fold change vs veh, ZFP14 / RFU, ACTR2 / Fold change vs veh, ACTR2 / RFU, PPP3R1 / Fold change vs veh, PPP3R1 / RFU, PIK3R1 / Fold change vs veh, PIK3R1 / RFU, HNRNPA1 / Fold change vs veh, HNRNPA1 / RFU, RNF170 / Fold change vs veh, RNF170 / RFU, ZNF28 / Fold change vs veh, ZNF28 / RFU, RNGTT / Fold change vs veh, RNGTT / RFU, OGT / Fold change vs veh, OGT / RFU, BRD1 / Fold change vs veh, BRD1 / RFU, MARS / Fold change vs veh, MARS / RFU, ZNF655 / Fold change vs veh, ZNF655 / RFU, FAHD1 / Fold change vs veh, FAHD1 / RFU, BDP1 / Fold change vs veh, BDP1 / RFU, LRRCC1 / Fold change vs veh, LRRCC1 / RFU, ARID1A / Fold change vs veh, ARID1A / RFU, ZNF146 / Fold change vs veh, ZNF146 / RFU, ZNF330 / Fold change vs veh, ZNF330 / RFU, GPN3 / Fold change vs veh, GPN3 / RFU, C9orf123 / Fold change vs veh, C9orf123 / RFU, N4BP2L2 / Fold change vs veh, N4BP2L2 / RFU, ARFIP1 / Fold change vs veh, ARFIP1 / RFU, FAM179B / Fold change vs veh, FAM179B / RFU, BCL10 / Fold change vs veh, BCL10 / RFU, UHRF1BP1L / Fold change vs veh, UHRF1BP1L / RFU, BET1 / Fold change vs veh, BET1 / RFU, CNOT2 / Fold change vs veh, CNOT2 / RFU, ZNF268 / Fold change vs veh, ZNF268 / Fold change vs veh, ZNF507 / RFU, DGCR2 / Fold change vs veh, DGCR2 / RFU, WDSUB1 / Fold change vs veh, WDSUB1 / Fold change vs veh, HSP90B1 /// MIR3652 / RFU, ADSS / Fold change vs veh, ADSS / RFU, GK / Fold change vs veh, GK / RFU, ZNF148 / Fold change vs veh, ZNF148 / RFU, TAF9 / Fold change vs veh, TAF9 / RFU, SLC1A5 / Fold change vs veh, SLC1A5 / RFU, SLMO2 / Fold change vs veh, SLMO2 / RFU, ABCC4 / Fold change vs veh, ABCC4 / RFU, LOC101060439 /// RAP1B / Fold change vs veh, LOC101060439 /// RAP1B / RFU, RFX7 / Fold change vs veh, RFX7 / RFU, GTPBP10 / Fold change vs veh, GTPBP10 / RFU, CNEP1R1 / Fold change vs veh, CNEP1R1 / RFU, BIVM-ERCC5 /// ERCC5 / Fold change vs veh, BIVM-ERCC5 /// ERCC5 / RFU, ILF3 / Fold change vs veh, ILF3 / RFU 11762660_at / Fold change /veh 11762660_at / RFU VCAN (11757783_s_at) / Fold change /veh VCAN (11757783_s_at) / RFU DDX43 (11728927_at) / Fold change /veh DDX43 (11728927_at) / RFU KRT8 (11758188_x_at) / Fold change /veh KRT8 (11758188_x_at) / RFU NKD1 (11759106_at) / Fold change /veh NKD1 (11759106_at) / RFU SRD5A1 (11742802_a_at) / Fold change /veh SRD5A1 (11742802_a_at) / RFU TPSAB1 /// TPSB2 (11721975_s_at) / Fold change /veh TPSAB1 /// TPSB2 (11721975_s_at) / RFU GSTM3 (11746129_a_at) / Fold change /veh GSTM3 (11746129_a_at) / RFU IL23R (11737362_x_at) / Fold change /veh IL23R (11737362_x_at) / RFU TMEM51 (11727254_a_at) / Fold change /veh TMEM51 (11727254_a_at) / RFU PIWIL2 (11732686_x_at) / Fold change /veh PIWIL2 (11732686_x_at) / RFU ORM1 (11744905_x_at) / Fold change /veh ORM1 (11744905_x_at) / RFU CCDC152 (11743942_at) / Fold change /veh CCDC152 (11743942_at) / RFU ECM1 (11717891_a_at) / Fold change /veh ECM1 (11717891_a_at) / RFU IL23R (11748794_a_at) / Fold change /veh IL23R (11748794_a_at) / RFU TNFAIP8L3 (11732012_x_at) / Fold change /veh TNFAIP8L3 (11732012_x_at) / RFU MBOAT4 (11741988_at) / Fold change /veh MBOAT4 (11741988_at) / RFU 11764193_at / Fold change /veh 11764193_at / RFU TMEM53 (11763286_at) / Fold change /veh TMEM53 (11763286_at) / RFU MAGEB2 (11727129_at) / Fold change /veh MAGEB2 (11727129_at) / RFU TMEM200A (11744735_a_at) / Fold change /veh TMEM200A (11744735_a_at) / RFU CCDC152 (11751479_a_at) / Fold change /veh CCDC152 (11751479_a_at) / RFU FAM211A (11726209_a_at) / Fold change /veh FAM211A (11726209_a_at) / RFU RGS16 (11746705_a_at) / Fold change /veh RGS16 (11746705_a_at) / RFU VCAN (11755009_s_at) / Fold change /veh VCAN (11755009_s_at) / RFU RHOB (11743442_s_at) / Fold change /veh RHOB (11743442_s_at) / RFU RGS16 (11720943_a_at) / Fold change /veh RGS16 (11720943_a_at) / RFU RGS16 (11720944_at) / Fold change /veh RGS16 (11720944_at) / RFU, VPS4B / Fold change vs veh, VPS4B / RFU, CREB1 / Fold change vs veh, CREB1 / RFU, DNAJC13 / Fold change vs veh, DNAJC13 / RFU, GNAQ / Fold change vs veh, GNAQ / RFU, CDK5R1 / Fold change vs veh, CDK5R1 / RFU, ZRANB3 / Fold change vs veh, ZRANB3 / RFU, CUL4A / Fold change vs veh, CUL4A / RFU, CCNY / Fold change vs veh, CCNY / RFU, UFL1 / Fold change vs veh, UFL1 / RFU, COG3 / Fold change vs veh, COG3 / RFU, DIAPH2 / Fold change vs veh, DIAPH2 / RFU, SKA2 / Fold change vs veh, SKA2 / RFU, AFF3 / Fold change vs veh, AFF3 / RFU, LMF1 / Fold change vs veh, LMF1 / RFU, IPO11 / Fold change vs veh, IPO11 / RFU, DFFB / Fold change vs veh, DFFB / RFU, FOXP1 / Fold change vs veh, FOXP1 / RFU, CARD8 / Fold change vs veh, CARD8 / RFU, STRN3 / Fold change vs veh, STRN3 / RFU, ADK / Fold change vs veh, ADK / RFU, RASSF2 / Fold change vs veh, RASSF2 / RFU, WIPF1 / Fold change vs veh, WIPF1 / RFU, LARP1B / Fold change vs veh, LARP1B / RFU, RASA1 / Fold change vs veh, RASA1 / RFU, RB1 / Fold change vs veh, RB1 / RFU, PPFIA1 / Fold change vs veh, PPFIA1 / RFU, MAT2A / Fold change vs veh, MAT2A / RFU, CCT5 / Fold change vs veh, CCT5 / RFU, WDR92 / Fold change vs veh, WDR92 / RFU, CUX1 / Fold change vs veh, CUX1 / RFU, TTC7A / Fold change vs veh, TTC7A / RFU, TMEM135 / Fold change vs veh, TMEM135 / RFU, DEPTOR / Fold change vs veh, DEPTOR / RFU, CPM / Fold change vs veh, CPM / RFU, DNAJB6 / Fold change vs veh, DNAJB6 / RFU, CACNA2D3 / Fold change vs veh, CACNA2D3 / RFU, DTX4 / Fold change vs veh, DTX4 / RFU, TFCP2 / Fold change vs veh, TFCP2 / RFU, GMCL1 /// GMCL1P1 / Fold change vs veh, GMCL1 /// GMCL1P1 / RFU, AEBP2 / Fold change vs veh, AEBP2 / RFU, SNHG1 /// SNORD22 /// SNORD25 /// SNORD26 /// SNORD27 /// SNORD28 /// SNORD29 /// SNORD31 / Fold change vs veh, SNHG1 /// SNORD22 /// SNORD25 /// SNORD26 /// SNORD27 /// SNORD28 /// SNORD29 /// SNORD31 / Fold change (Aza/veh), C12orf56 (ProbeSet 11735607_a_at) / Fold change (ACY-1035/veh), C12orf56 (ProbeSet 11735607_a_at) / Fold change (Aza/veh), FGFR1OP (ProbeSet 11751329_s_at) / Fold change (ACY-1035/veh), FGFR1OP (ProbeSet 11751329_s_at) / Fold change (Aza/veh), VPS36 (ProbeSet 11739960_a_at) / Fold change (ACY-1035/veh), VPS36 (ProbeSet 11739960_a_at) / RFU SYPL1 (11715823_x_at) / Fold change /veh SYPL1 (11715823_x_at) / RFU IGFBP7 (11715501_s_at) / Fold change /veh IGFBP7 (11715501_s_at) / RFU REEP3 (11722064_at) / Fold change /veh REEP3 (11722064_at) / RFU IGLL1 (11728026_x_at) / Fold change /veh IGLL1 (11728026_x_at): dose or concentration left out as unconfirmed. The following applies: MV-4-11 cells, 48 hours.

On to `Nc1ccc(-c2cccs2)cc1NC(=O)c1ccc2c(c1)cc(C1CC1)n2CCN1CCOCC1` [ACY-1035], for which the “Fold change /veh RNFT2 (11725882_a_at)” value was determined as 1.00.
